In experiment [1] the target is T1, PI3K delta (Homo sapiens, UniProt O00329).
T1 construct: for the full-length p110-d subunit are generated and fused by overlapping PCR; His tag (C); made in house; host or cells: baculovirus BV1060; Tn5 (Trichoplusia ni) or TiniPro insect cells
The experiment can be described thus: PI3K delta kinase assay (Kinase-Glo luminescence). Format: biochemical. Put shortly: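 IC50s derive from 8-point inhibition curves fitted to a 4-parameter logistic model. Reaction: 10 nM purified p110δ/p85 iSH2 fusion, 1 μM ATP, 10 μg/mL PI substrate, pH 7.5 Tris buffer with MgCl2, NaCl, CHAPS and DTT, run 60 min at room temperature; remaining ATP read by Kinase-Glo luminescence.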

The target of experiment [2] is T2, PI3K alfa (Homo sapiens, UniProt P42336).
T2 construct: His tag (C); made in house; host or cells: baculovirus BV1075; Tn5 (Trichoplusia ni) or TiniPro insect cells
Briefly: PI3K alpha kinase assay (Kinase-Glo luminescence). Format: biochemical. Put shortly: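 IC50 values come from a four-parameter logistic fit of percent inhibition at eight concentrations, typically 10 to 0.003 μM. Recombinant PI3Kα at 10 nM turned over 1 μM ATP with 10 μg/mL PI for 60 min at room temperature, and residual ATP was measured by Kinase-Glo.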

Like-named read-outs stand apart in the source and are kept apart here.

T2 sequence (P42336 with tags, fused parts or gaps limits assumed): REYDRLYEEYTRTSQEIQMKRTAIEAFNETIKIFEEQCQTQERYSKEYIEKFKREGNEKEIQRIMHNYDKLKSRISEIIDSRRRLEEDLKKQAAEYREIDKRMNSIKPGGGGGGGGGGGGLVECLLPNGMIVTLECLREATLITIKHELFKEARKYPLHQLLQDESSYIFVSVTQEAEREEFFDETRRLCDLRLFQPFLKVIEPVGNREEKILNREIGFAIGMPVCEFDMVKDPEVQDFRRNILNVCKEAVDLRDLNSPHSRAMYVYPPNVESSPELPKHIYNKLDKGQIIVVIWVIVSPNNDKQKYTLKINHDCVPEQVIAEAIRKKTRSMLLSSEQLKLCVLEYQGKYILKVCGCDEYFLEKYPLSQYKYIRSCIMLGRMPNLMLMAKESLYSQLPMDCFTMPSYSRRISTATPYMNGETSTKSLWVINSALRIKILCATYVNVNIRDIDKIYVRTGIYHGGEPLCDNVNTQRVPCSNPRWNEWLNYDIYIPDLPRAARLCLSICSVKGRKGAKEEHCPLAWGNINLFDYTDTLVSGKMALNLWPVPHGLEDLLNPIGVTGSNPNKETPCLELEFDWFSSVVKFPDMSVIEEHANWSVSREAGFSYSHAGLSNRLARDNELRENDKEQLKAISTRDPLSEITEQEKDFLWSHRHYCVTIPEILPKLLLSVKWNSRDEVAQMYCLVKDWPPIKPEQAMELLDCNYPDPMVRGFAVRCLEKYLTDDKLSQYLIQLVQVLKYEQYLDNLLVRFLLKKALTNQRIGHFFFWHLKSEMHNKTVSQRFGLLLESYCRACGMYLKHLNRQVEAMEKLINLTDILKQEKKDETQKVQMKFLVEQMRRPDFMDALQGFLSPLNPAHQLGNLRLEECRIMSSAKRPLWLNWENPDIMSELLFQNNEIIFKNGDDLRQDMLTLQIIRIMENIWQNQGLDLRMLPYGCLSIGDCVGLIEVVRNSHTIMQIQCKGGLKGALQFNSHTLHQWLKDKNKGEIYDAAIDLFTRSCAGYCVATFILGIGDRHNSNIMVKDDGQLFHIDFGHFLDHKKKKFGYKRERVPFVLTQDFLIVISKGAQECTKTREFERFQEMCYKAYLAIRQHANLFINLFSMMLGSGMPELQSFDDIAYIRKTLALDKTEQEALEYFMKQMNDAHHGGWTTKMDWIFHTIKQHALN
T1 sequence (O00329 with tags, fused parts or gaps limits assumed): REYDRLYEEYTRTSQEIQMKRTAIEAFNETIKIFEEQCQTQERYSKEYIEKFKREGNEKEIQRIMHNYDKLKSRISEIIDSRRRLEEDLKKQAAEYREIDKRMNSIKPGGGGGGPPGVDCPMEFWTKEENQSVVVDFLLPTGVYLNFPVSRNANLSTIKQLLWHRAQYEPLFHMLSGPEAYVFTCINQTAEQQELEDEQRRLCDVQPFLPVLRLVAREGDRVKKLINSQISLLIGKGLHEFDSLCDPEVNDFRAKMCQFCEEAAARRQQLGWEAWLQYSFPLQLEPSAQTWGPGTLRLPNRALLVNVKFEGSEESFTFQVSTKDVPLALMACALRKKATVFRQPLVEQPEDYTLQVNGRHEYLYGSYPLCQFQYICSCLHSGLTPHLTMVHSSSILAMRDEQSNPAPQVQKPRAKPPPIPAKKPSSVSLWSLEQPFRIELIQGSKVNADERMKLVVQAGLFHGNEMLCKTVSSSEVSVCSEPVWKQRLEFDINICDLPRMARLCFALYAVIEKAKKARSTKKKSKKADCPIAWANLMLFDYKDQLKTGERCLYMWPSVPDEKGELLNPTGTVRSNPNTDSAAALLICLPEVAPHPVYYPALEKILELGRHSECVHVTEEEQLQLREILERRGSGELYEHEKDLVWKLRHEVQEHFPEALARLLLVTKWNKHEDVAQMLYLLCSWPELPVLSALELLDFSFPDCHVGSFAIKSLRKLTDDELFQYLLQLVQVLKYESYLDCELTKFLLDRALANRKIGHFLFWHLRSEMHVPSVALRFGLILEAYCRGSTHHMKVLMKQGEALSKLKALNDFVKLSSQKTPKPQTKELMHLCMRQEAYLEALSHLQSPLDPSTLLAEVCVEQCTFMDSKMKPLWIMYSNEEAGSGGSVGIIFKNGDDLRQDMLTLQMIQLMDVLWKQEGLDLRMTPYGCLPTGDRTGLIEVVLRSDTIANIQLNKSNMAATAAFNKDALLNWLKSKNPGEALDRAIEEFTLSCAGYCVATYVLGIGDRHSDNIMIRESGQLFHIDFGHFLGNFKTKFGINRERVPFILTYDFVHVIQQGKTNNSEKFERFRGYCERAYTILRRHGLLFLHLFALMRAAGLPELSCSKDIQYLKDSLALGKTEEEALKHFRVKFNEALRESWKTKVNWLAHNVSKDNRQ

Turning to `COc1ccc(-c2ccc3ncc4c(c3c2)n(-c2cccnc2OC)c(=O)n4C)cn1` [Example 1.1, 1-(2-Methoxy-pyridin-3-yl)-8-(6-methoxy-pyridin-3-yl)-3-methyl-1,3-dihydro-imidazo[4,5-c]quinolin-2-one], the IC50 in experiment [1] (read-out: PI3Kdelta/IC50) was 26 nM; in experiment [2] (read-out: PI3Kalfa/IC50), 23 nM.
On the same counts, the results for `COc1ncccc1-n1c(=O)n(C)c2cnc3ccc(-c4cnc(N)c(C(F)(F)F)c4)cc3c21` [Example 1.3, 8-(6-Amino-5-trifluoromethyl-pyridin-3-yl)-1-(2-methoxy-pyridin-3-yl)-3-methyl-1,3-dihydro-imidazo[4,5-c]quinolin-2-one] are 8 nM and 10 nM.
On the same counts, the results for `CNc1ccc(-c2ccc3ncc4c(c3c2)n(-c2cccnc2OC)c(=O)n4C)cn1` [Example 1.4, 1-(2-Methoxy-pyridin-3-yl)-3-methyl-8-(6-methylamino-pyridin-3-yl)-1,3-dihydro-imidazo[4,5-c]quinolin-2-one] are 81 nM and 48 nM.
For `CCOc1ccc(-c2ccc3ncc4c(c3c2)n(-c2cccnc2OC)c(=O)n4C)cn1` [Example 1.5, 8-(6-Ethoxy-pyridin-3-yl)-1-(2-methoxy-pyridin-3-yl)-3-methyl-1,3-dihydro-imidazo[4,5-c]quinolin-2-one], in that order: 166 nM and 40 nM.
Regarding `COc1ncccc1-n1c(=O)n(C)c2cnc3ccc(-c4cnc5c(ccn5C)c4)cc3c21` [Example 1.7, 1-(2-Methoxy-pyridin-3-yl)-3-methyl-8-(1-methyl-1H-pyrrolo[2,3-b]pyridin-5-yl)-1,3-dihydro-imidazo[4,5-c]quinolin-2-one], the IC50 came to 101 nM in experiment [1] (read-out: PI3Kdelta/IC50) and 134 nM in experiment [2] (read-out: PI3Kalfa/IC50).
With `COc1ncccc1-n1c(=O)n(C)c2cnc3ccc(-c4ccc(F)nc4)cc3c21` [Example 1.8, 8-(6-Fluoro-pyridin-3-yl)-1-(2-methoxy-pyridin-3-yl)-3-methyl-1,3-dihydro-imidazo[4,5-c]quinolin-2-one], the IC50 in experiment [1] (read-out: PI3Kdelta/IC50) is 364 nM; in experiment [2] (read-out: PI3Kalfa/IC50), 58 nM.
Turning to `COc1ncccc1-n1c(=O)n(C)c2cnc3ccc(-c4cnc(N(C)C)nc4)cc3c21` [Example 1.9, 8-(2-Dimethylamino-pyrimidin-5-yl)-1-(2-methoxy-pyridin-3-yl)-3-methyl-1,3-dihydro-imidazo[4,5-c]quinolin-2-one], the IC50 was found to be 85 nM in experiment [1] (read-out: PI3Kdelta/IC50) and 71 nM in experiment [2] (read-out: PI3Kalfa/IC50).
For `CCOc1ccc(-c2ccc3ncc4c(c3c2)n(-c2cccnc2C)c(=O)n4C)cn1` [Example 2.1, 8-(6-Ethoxy-pyridin-3-yl)-3-methyl-1-(2-methyl-pyridin-3-yl)-1,3-dihydro-imidazo[4,5-c]quinolin-2-one], in that order: 94 nM and 56 nM.
Regarding `CNc1ncc(-c2ccc3ncc4c(c3c2)n(-c2cccnc2C)c(=O)n4C)cn1` [Example 2.2, 3-Methyl-8-(2-methylamino-pyrimidin-5-yl)-1-(2-methyl-pyridin-3-yl)-1,3-dihydro-imidazo[4,5-c]quinolin-2-one], the figures for the IC50 in experiment [1] (read-out: PI3Kdelta/IC50) and in experiment [2] (read-out: PI3Kalfa/IC50) were 22 nM and 26 nM, respectively.
On the same counts, the results for `Cc1ncccc1-n1c(=O)n(C)c2cnc3ccc(-c4cnc5c(ccn5C)c4)cc3c21` [Example 2.14, 3-Methyl-1-(2-methyl-pyridin-3-yl)-8-(1-methyl-1H-pyrrolo[2,3-b]pyridin-5-yl)-1,3-dihydro-imidazo[4,5-c]quinolin-2-one] are 57 nM and 34 nM.
For `CCOc1cc(-c2ccc3ncc4c(c3c2)n(-c2cccnc2C)c(=O)n4C)cnc1C` [Example 2.22, 8-(5-Ethoxy-6-methyl-pyridin-3-yl)-3-methyl-1-(2-methyl-pyridin-3-yl)-1,3-dihydro-imidazo[4,5-c]quinolin-2-one], the IC50 in experiment [1] (read-out: EPK_PI3Kdelta/IC50) is 61 nM; in experiment [2] (read-out: EPK_PI3Kalfa/IC50), 81 nM.
For the compound `Cc1cccnc1-n1c(=O)n(C)c2cnc3ccc(-c4cnc5ccccc5c4)cc3c21` [Example 3.8, 3-Methyl-1-(3-methyl-pyridin-2-yl)-8-quinolin-3-yl-1,3-dihydro-imidazo[4,5-c]quinolin-2-one], the IC50 came out at 264 nM in experiment [1] (read-out: PI3Kdelta/IC50) and 70 nM in experiment [2] (read-out: PI3Kalfa/IC50).
For `COc1ccc(-c2ccc3ncc4c(c3c2)n(-c2ncccc2C)c(=O)n4C)cn1` [Example 3.13, 8-(6-Methoxy-pyridin-3-yl)-3-methyl-1-(3-methyl-pyridin-2-yl)-1,3-dihydro-imidazo[4,5-c]quinolin-2-one], the IC50 in experiment [1] (read-out: PI3Kdelta/IC50) is 249 nM; in experiment [2] (read-out: PI3Kalfa/IC50), 90 nM.
For the compound `COc1ccc(-c2ccc3ncc4c(c3c2)n(-c2cccnc2)c(=O)n4C)cc1OC` [Example 5.2, 8-(3,4-Dimethoxy-phenyl)-3-methyl-1-pyridin-3-yl-1,3-dihydro-imidazo[4,5-c]quinolin-2-one], the IC50 in experiment [1] (read-out: PI3Kdelta/IC50) was 72 nM; in experiment [2] (read-out: PI3Kalfa/IC50), 29 nM.
Turning to `COc1ccc(-c2ccc3ncc4c(c3c2)n(-c2cccnc2)c(=O)n4C)cn1` [Example 5.4, 8-(6-Methoxy-pyridin-3-yl)-3-methyl-1-pyridin-3-yl-1,3-dihydro-imidazo[4,5-c]quinolin-2-one], the IC50 was found to be 39 nM in experiment [1] (read-out: PI3Kdelta/IC50) and 19 nM in experiment [2] (read-out: PI3Kalfa/IC50).
Turning to `CCNc1cc(-c2ccc3ncc4c(c3c2)n(-c2ccc(F)nc2C)c(=O)n4C)cnc1CO` [Example 7.9, 8-(5-Ethylamino-6-hydroxymethyl-pyridin-3-yl)-1-(6-fluoro-2-methyl-pyridin-3-yl)-3-methyl-1,3-dihydro-imidazo[4,5-c]quinolin-2-one], the IC50 was 36 nM in experiment [1] (read-out: EPK_PI3Kdelta/IC50) and 20 nM in experiment [2] (read-out: EPK_PI3Kalfa/IC50).
On the same counts, the results for `CNc1cc(-c2ccc3ncc4c(c3c2)n(-c2ccc(F)nc2C)c(=O)n4C)cnc1CO` [Example 7.11, 1-(6-Fluoro-2-methyl-pyridin-3-yl)-8-(6-hydroxymethyl-5-methylamino-pyridin-3-yl)-3-methyl-1,3-dihydro-imidazo[4,5-c]quinolin-2-one] are 26 nM and 17 nM.
On the same counts, the results for `CNc1ncc(-c2ccc3ncc4c(c3c2)n(-c2ccc(F)nc2C)c(=O)n4C)cc1F` [Example 7.12, 8-(5-Fluoro-6-methylamino-pyridin-3-yl)-1-(6-fluoro-2-methyl-pyridin-3-yl)-3-methyl-1,3-dihydro-imidazo[4,5-c]quinolin-2-one] are 12 nM and 44 nM.
`CNc1ncc(-c2ccc3ncc4c(c3c2)n(-c2ccc(F)nc2C)c(=O)n4C)cc1C(F)(F)F` [Example 7.13, 1-(6-Fluoro-2-methyl-pyridin-3-yl)-3-methyl-8-(6-methylamino-5-trifluoromethyl-pyridin-3-yl)-1,3-dihydro-imidazo[4,5-c]quinolin-2-one]: the IC50 in experiment [1] (read-out: EPK_PI3Kdelta/IC50) is 3 nM; in experiment [2] (read-out: EPK_PI3Kalfa/IC50), 11 nM.
Regarding `CNC(=O)c1cc(-c2ccc3ncc4c(c3c2)n(-c2ccc(F)nc2C)c(=O)n4C)cnc1N` [Example 7.14, 2-Amino-5-[1-(6-fluoro-2-methyl-pyridin-3-yl)-3-methyl-2-oxo-2,3-dihydro-1H-imidazo[4,5-c]quinolin-8-yl]-N-methyl-nicotinamide], the IC50 in experiment [1] (read-out: EPK_PI3Kdelta/IC50) stood at 5 nM; in experiment [2] (read-out: EPK_PI3Kalfa/IC50), 11 nM.
On the same counts, the results for `CCOCc1cc(-c2ccc3ncc4c(c3c2)n(-c2ccc(F)nc2C)c(=O)n4C)cnc1N` [Example 7.15, 8-(6-Amino-5-ethoxymethyl-pyridin-3-yl)-1-(6-fluoro-2-methyl-pyridin-3-yl)-3-methyl-1,3-dihydro-imidazo[4,5-c]quinolin-2-one] are 37 nM and 59 nM.
